Results taken from paper PMC7822874, “Chemoprotective antimalarials identified through quantitative high-throughput screening of Plasmodium blood and liver stage parasites” (Scientific Reports, 2021).
Read-outs that look alike come from different tables or passages of the source.

Key:
[1] = system: Plasmodium falciparum Dd2 asexual blood stage parasites; experiment: microbe, parasite or virus in culture; parameters: species or system Plasmodium falciparum Dd2 in human erythrocytes; single determination (one 11-point concentration-response curve); details: Plasmodium falciparum, DD2, Erythrocyte, 72 h; read-out: AC50
in vitro = details: human, HepG2-A16-CD81EGFP cells, uninfected
[2] = system: P. berghei-ANKA-GFP-LucCON liver stage parasites in HepG2-A16-CD81EGFP cells; experiment: P. berghei liver stage Pb-Luc assay, Method 1 (UCSD, 1536-well); format: cell-based, Plasmodium berghei; details: Plasmodium berghei, 48 h, average of 2 wells, 1536-well plate; for activity at 1 µM: nominal 1 uM (10 mM stock), […] for 15 mM, 1.2 uM for 12 mM, 2 uM for 20 mM stock; for activity at 3 µM: nominal 3 uM (10 mM stock), 4.5 uM for 15 mM, 3.6 uM for 12 mM, 6 uM for 20 mM stock; as to all read-outs here: reference of the scale not given here
[3] = nominal 1 uM (10 mM stock), […] for 15 mM, 1.2 uM for 12 mM, 2 uM for 20 mM stock, average of 2 wells, repeat 2
[4] = nominal 3 uM (10 mM stock), 4.5 uM for 15 mM, 3.6 uM for 12 mM, 6 uM for 20 mM stock, average of 2 wells, repeat 2
[5] = repeat 1, read-out: Pb-Luc signal, 1 uM, repeat 1
[6] = repeat 2, read-out: Pb-Luc signal, 1 uM, repeat 2
[7] = repeat 3, read-out: Pb-Luc signal, 1 uM, repeat 3
[8] = repeat 1, read-out: Pb-Luc signal, 3 uM, repeat 1
[9] = repeat 2, read-out: Pb-Luc signal, 3 uM, repeat 2
[10] = repeat 3, read-out: Pb-Luc signal, 3 uM, repeat 3

Structure (SMILES)	HepG2 viability signal, 1 uM, repeat 2 (HepG2-A16-CD81EGFP cells; [3]) [%]	HepG2 viability signal, 3 uM, repeat 2 (HepG2-A16-CD81EGFP cells; [4]) [%]	AC50 [1] [nM]	viability at 48 h, 1 µM (in vitro) [%]	viability at 48 h, 3 µM (in vitro) [%]	activity at 1 µM [2, 5] [%]	activity at 1 µM [2, 6] [%]	activity at 1 µM [2, 7] [%]	activity at 3 µM [2, 8] [%]	activity at 3 µM [2, 9] [%]	activity at 3 µM [2, 10] [%]	HepG2 viability signal, 1 uM, repeat 2 (HepG2-A16-CD81EGFP cells) [%]	HepG2 viability signal, 3 uM, repeat 2 (HepG2-A16-CD81EGFP cells) [%]
O[C@H]1CC[C@@H](Cc2cc(-c3ccc(F)cc3)on2)O[C@@H]1CNC1CCCCC1 [NCGC00401034-01]	105.13	100.53	2430	104	107	123	102	154	112	106	134	–	–
CCOC(=O)C1(Cc2ccccc2Cl)CCNCC1 [NCGC00430911-01]	100.98	101.65	2660	94.6	94.7	78.1	97.3	89.2	74.5	106	93.5	–	–
CCN1CCN(Cc2c(O)ccc3c(=O)c(Oc4ccccc4C(C)C)c(C(F)(F)F)oc23)CC1 [NCGC00100599-01]	96.13	100.51	596	97.5	99.2	78.6	113	135	70	89.4	121	–	–
Cn1nc(C(=O)NCC(=O)N2CCCCCCNC(=O)CC2c2ccccc2)c2ccccc21 (stereo not drawn) [NCGC00467428-01]	105.85	101.81	2110	108	106	90.2	74	75.4	105	88.2	105	–	–
CC1=C(C(=O)Nc2ccc(C)cc2C)C(c2ccc(Br)cc2)n2ncc(C(=O)Nc3cccc(C)c3)c2N1 (stereo not drawn) [NCGC00126300-01]	95.30	90.59	3350	102	94.6	94.7	120	115	75.3	87.7	102	–	–
CCN1CCN(c2cc(C)c3cc(NC(=O)c4cc(OC)c(OC)c(OC)c4)ccc3n2)CC1 [NCGC00137500-01]	103.37	106.17	1330	100	103	125	156	138	126	103	114	–	–
COc1ccc2[nH]c(C[C@@H]3C[C@@H](C(C)C)[C@H](CNCc4ccccc4OC)C=C3C)nc2c1 [NCGC00392082-01]	98.07	97.57	9440	99	97.1	67	80.5	77.5	48.5	52	40.1	–	–
COc1ccc(Cl)cc1[S+](=O)([O-])N1CCC2(CCCNC2)C1 (stereo not drawn) [NCGC00431241-01]	104.68	95.82	–	112	108	96.7	98.8	61.1	98.4	74.5	79.2	–	–
CCC(=O)N1CCc2cc(Br)cc([S+](=O)([O-])N3CCCC(C(=O)Nc4ccc(OC)c(Cl)c4)C3)c21 (stereo not drawn) [NCGC00106201-01]	–	–	–	90.7	82.3	76.1	86.6	75.8	53.5	100	60	91.30	86.54
COc1ccc(-c2noc(-c3cccn3CC(=O)Nc3cccc(Cl)c3C)n2)cc1F [NCGC00445510-01]	99.09	100.27	–	104	105	103	114	132	102	91.7	124	–	–
CCOC(=O)C1(Cc2ccccc2C(F)(F)F)CCNCC1 [NCGC00433719-01]	106.17	103.00	–	108	105	99.2	89.8	165	76.2	96.6	91.6	–	–
Cc1ccc([S+](=O)([O-])N2CCC(OC3CCN(Cc4ccccc4)CC3)CC2)c(C)c1 [NCGC00444944-01]	105.13	100.76	–	111	107	76.1	74	76.6	78.2	61.2	56.1	–	–
Cc1ccccc1CC(=O)NCc1nnc2cc(-c3nc(C4CC4)no3)ccn12 [NCGC00457761-01]	102.90	101.49	–	109	107	130	129	103	86.9	122	133	–	–
C[C@H]1[C@@H]2[C@H]3OC(=O)[C@@H](C)[C@@H]3CC[C@@]2(C)CC[C@@H]1NC(=O)CC(C)(C)C [NCGC00392703-01]	102.40	102.42	–	95.8	99	105	129	103	126	109	99.6	–	–
